Reference: patent US20170296505A1, “LONG-CHAIN CARBOXYCHROMANOLS AND ANALOGS FOR USE AS ANTI-INFLAMMATORY AGENTS” (Purdue Research Foundation, priority 2008, published 2017)
Where two headings read alike, the source gives them in different places. Blank lines part the entries; values can stand above or below the compound they belong to.

What was measured:
[1] = tested on: PGE2 in IL-1β treated A549 cells; assay: PGE2 generation during chronic IL-1β treatment; assay type: cell-based, human; details: for IC50: read-out: concentration to cause 50% inhibition of PGE2, in the presence of exogenous AA (5 μM, 5 min) after co-incubation with IL-1β
Protocol: (§1) A549 cells were pre-incubated with different concentrations of tocopherols in the presence or absence of 1 μM sesamin for 15 h, and then treated with IL-1β (2 ng/mL) for 24 h. PGE2 in the cell-culture media was measured by ELISA assays. Results are the averages of three independent experiments and expressed as Mean±SEM.
as §1, with “tocotrienols” for “tocopherols”
PGE2 generation during chronic IL-1β treatment—2.5−3×10^5 A549 cells per well were seeded in RPMI-1640 with 10% of FBS and allowed to attach overnight in a 24-well plate. Vitamin E stock solutions were initially made in DMSO and then diluted in 10 mg/mL of bovine serum albumin. Confluent cells were incubated in DMEM containing 1% FBS with DMSO (control) or vitamin E forms for 14-16 h and then 2 ng/ml of IL-1β was introduced for 24 hours. The medium was then collected and PGE2 accumulation was measured using ELISA assay from Cayman Chemicals (Ann Arbor, Mich.).
Statistical analysis—The unpaired student's t-test was used in the statistical analysis. All results are expressed as mean±SD. Activation of human lung epithelial A549 cells by IL-1β leads to a strong up-regulation of COX-2 protein expression and almost 100-fold increase of PGE2 generation. This cellular system has been employed to evaluate inhibitory potency of anti-inflammatory drugs, including COX inhibitors and was previously used by us to study the effect of α-T, γ-T and γ-CEHC on PGE2 formation (13, 20). […] Inhibition of PGE2 by γ-T, and γ-TE was also observed in the presence of exogenous AA, where after co-incubated with vitamin E forms and IL-1β, cells were incubated with fresh media containing 5 μM of AA for 5 min.

5-LOX = target: T1, 5-LOX (Homo sapiens, UniProt P09917); assay: 5-LOX inhibition with purified human enzyme (Table 3); assay type: biochemical; details: mean±SEM
T1 sequence (P09917 1-674): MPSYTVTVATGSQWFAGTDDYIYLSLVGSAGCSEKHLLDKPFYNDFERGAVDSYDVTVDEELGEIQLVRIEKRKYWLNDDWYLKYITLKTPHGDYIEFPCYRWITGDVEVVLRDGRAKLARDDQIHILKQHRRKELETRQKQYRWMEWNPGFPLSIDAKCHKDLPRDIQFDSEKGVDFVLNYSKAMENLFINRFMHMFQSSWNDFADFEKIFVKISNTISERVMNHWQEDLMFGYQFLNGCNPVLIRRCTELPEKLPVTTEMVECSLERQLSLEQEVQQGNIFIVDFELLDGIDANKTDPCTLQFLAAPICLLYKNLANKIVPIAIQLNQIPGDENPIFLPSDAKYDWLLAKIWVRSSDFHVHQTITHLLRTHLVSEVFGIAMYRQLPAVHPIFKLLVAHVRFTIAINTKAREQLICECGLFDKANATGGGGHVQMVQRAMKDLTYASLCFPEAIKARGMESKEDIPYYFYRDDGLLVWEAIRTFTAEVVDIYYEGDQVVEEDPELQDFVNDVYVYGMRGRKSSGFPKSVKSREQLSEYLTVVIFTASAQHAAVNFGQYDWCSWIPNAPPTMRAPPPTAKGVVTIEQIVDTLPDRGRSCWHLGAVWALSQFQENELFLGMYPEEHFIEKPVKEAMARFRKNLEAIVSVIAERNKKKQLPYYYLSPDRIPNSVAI
Source text: Results are mean±SEM based on four or more independent experiments.

A549 cells [2] = assay: Cell viability of confluent A549 cells (MTT); assay type: cell-based, human; details: 100% confluent cells, 1% FBS
COX-2 [3] = target: T2, COX-2 (Homo sapiens, UniProt P35354); assay: COX-2 inhibition with purified human enzyme (Table 3); assay type: biochemical; parameters: A549 cells were pre-treated with 0.5-1 ng/mL of IL-1β- for 6 hours to induce COX-2 expression; endogenous in cells; details: mean±SEM
T2 sequence (P35354 18-604): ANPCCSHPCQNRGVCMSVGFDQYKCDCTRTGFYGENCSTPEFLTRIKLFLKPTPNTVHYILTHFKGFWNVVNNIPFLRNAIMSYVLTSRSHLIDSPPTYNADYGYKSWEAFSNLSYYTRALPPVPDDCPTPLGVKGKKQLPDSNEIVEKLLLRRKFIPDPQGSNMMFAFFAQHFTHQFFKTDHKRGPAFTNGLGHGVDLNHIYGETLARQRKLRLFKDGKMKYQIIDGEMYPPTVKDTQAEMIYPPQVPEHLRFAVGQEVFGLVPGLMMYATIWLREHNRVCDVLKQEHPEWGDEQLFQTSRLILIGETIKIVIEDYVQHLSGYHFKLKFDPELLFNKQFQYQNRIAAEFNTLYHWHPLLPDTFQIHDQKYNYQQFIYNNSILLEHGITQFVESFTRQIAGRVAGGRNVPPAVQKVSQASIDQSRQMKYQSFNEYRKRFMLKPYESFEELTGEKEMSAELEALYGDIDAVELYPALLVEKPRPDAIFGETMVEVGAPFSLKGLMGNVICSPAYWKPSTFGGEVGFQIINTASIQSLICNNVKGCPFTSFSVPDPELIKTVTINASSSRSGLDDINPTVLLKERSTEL
Source text: Free radical biology & medicine 95, 190-199. Results are mean±SEM based on four or more independent experiments.

[4] = tested on: IL-1beta-stimulated PGE2 formation in A549 cells; assay: IL-1beta-stimulated PGE2 formation with or without sesamin (Table 4); assay type: cell-based, human; details: IL-1beta 2 ng/ml, 8 h; 13′-COOH 2.5 uM, sesamin 1 uM
Protocol: Briefly, A549 cells were stimulated with IL-1beta (2 ng/ml) in the presence of DMSO (ctrl, 0.1%), control with sesamin (1 uM), 13′-COOH (structure 1) at 2.5 uM, 13′-COOH with sesamin (1 uM). Basal control was cells incubated with medium without IL-1beta. Eight hours later, media were collected and PGE2 was measured by ELISA.

ovine COX-1 = target: T3, ovine COX-1 (Ovis aries, UniProt P05979); assay: COX-1 activity assay using purified enzyme; assay type: biochemical
T3 construct: purchased Cayman Chemicals (Ann Arbor, Mich.)
T3 sequence (P05979 25-600): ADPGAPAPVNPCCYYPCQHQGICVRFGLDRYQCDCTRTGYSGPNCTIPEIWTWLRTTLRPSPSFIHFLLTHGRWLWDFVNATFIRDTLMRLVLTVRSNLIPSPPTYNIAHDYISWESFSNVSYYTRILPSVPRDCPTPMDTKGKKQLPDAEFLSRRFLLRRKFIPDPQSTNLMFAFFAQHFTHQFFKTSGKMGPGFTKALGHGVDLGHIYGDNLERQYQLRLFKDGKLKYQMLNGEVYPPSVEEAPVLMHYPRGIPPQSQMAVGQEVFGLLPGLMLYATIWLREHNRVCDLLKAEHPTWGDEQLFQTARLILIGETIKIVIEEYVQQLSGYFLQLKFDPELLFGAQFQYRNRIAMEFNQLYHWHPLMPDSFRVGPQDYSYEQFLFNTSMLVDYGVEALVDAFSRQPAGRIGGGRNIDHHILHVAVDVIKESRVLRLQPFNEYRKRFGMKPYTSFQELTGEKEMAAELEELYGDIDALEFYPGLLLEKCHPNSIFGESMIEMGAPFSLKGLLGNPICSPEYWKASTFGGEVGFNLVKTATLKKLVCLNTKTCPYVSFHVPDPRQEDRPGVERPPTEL
Protocol: (§2) COX-1 and COX -2 activity assay using purified enzymes—The enzymatic reactions were performed in 0.1M Tris (pH 8.0), in the presence of 5 mM EDTA, 2 mM phenol, and 1 μM heme. […] Enzymatic reactions were initiated by addition of AA at a final concentration of 5 μM for 2 min. The reaction was stopped by addition of 0.1 M HCl. Stannous chloride in 0.1 M HCl was then added to reduce PGG2 and PGH2 to PGF2a. After addition of 0.5 vol of […] NaCl, prostaglandins formed in the reaction were extracted using 2.5 vol of ethyl acetate and the organic layer was completely dried under N2. PGF2a, and PGE2 were quantified using ELISA assays from Cayman Chemicals.

COX-2 [5] = target: T2, COX-2; assay: COX-2 activity assay using purified enzyme; assay type: biochemical; parameters: purchased Cayman Chemicals (Ann Arbor, Mich.); details: at 250 μM
Protocol: as §2

[6] = LC-MS analysis of fecal samples of mice fed δTE-13′; assay type: in vivo; details: mice fed with δTE-13′
Source text: FIG. 6. Detection of δTE-13′-1 in fecal samples.

A549 cells [7] = assay: Metabolites of vitamin E forms in A549 conditioned media (HPLC); assay type: in vitro ADME, human; details: 20 μM
Protocol: FIG. 3A illustrates that unconjugated long-chain carboxychromanols but not sulfated derivatives inhibited COX-2 activity in intact cells. […] Sulfated metabolites were the sum of 9′S, 11′S and 13′S, and unconjugated metabolites are the sum of 9′, 11′ and 13′. Conditioned media were obtained by incubation of A549 cells with γ-TE at 20 μM for 24, 48 and 72 h. Metabolites were extracted and measured using HPLC assay. The conditioned media were then used for the activity assay as described in FIG. 2A and 2B. Unsulfated/sulfated is the ratio of the sum of 9′, 11′ and 13′ to that of 9′S, 11′S and 13′S. All the results are expressed as Mean±SD. […]
Quantitation of vitamin E metabolites in conditioned media—Long-chain carboxychromanols and their sulfated counterparts were quantitated by a HPLC assay with fluorescent detection (17). […]
Extracted metabolites were separated using HPLC and detected by a Shimadzu RF-10AXL spectrofluorometric detector (Shimadzu, Columbia, Md.) with the excitation and emission wavelength at 292 nm and 327 nm, respectively. […] Long-chain metabolites were quantified using tocopherols as the external standards with a correction factor based on the linear relationship between fluorescent intensity and solvent content (17).

IC50 ([1]; Homo sapiens, A549, 5 min): 25 µM
IC50 (5-LOX): > 50 µM
IC50 (COX-2 [3]): > 50 µM
SMILES: Cc1c(O)cc2c(c1C)OC(C)(CCCC(C)CCCC(C)CCCC(C)C)CC2 (centres unmarked) [γ-T]
cell viability (MTT, cell morphology) (A549 cells [2]; 25-50 μM): did not show significant effects

IC50 ([1]; Homo sapiens, A549, 5 min): 10 µM
IC50 (5-LOX): > 50 µM
IC50 (COX-2 [3]): > 50 µM
SMILES: Cc1cc(O)cc2c1OC(C)(CCCC(C)CCCC(C)CCCC(C)C)CC2 (centres unmarked) [δ-T]
cell viability (MTT, cell morphology) (A549 cells [2]; 25-50 μM): did not show significant effects

SMILES: c1cc2c(cc1[C@H]1OC[C@H]3[C@@H]1CO[C@@H]3c1ccc3c(c1)OCO3)OCO2 [sesamin, reference compound]
effect on PGE2 generation ([1]; sesamin alone at 1 μM): did not affect
PGE2 [4]: 12.46 ± 1.4 ng/mL

SMILES: CC(C)=CCC/C(C)=C/CC/C(C)=C/CC[C@]1(C)CCc2c(C)c(O)c(C)c(C)c2O1 [α-TE, α-Tocotrienol]
inhibition of PGE2 formation ([1]; at 20 μM, A549 cells co-treated with IL-1β): 20%

inhibition of COX-1 (ovine COX-1; at 250 μM): did not significantly inhibit
IC50 COX-1 (ovine COX-1; purified enzyme, Not inhibit: 9′ at 20 μM, acetaminophen at 250 μM): Not inhibit*
inhibition of COX-2 (COX-2 [5]): did not significantly inhibit
SMILES: CC(=O)Nc1ccc(O)cc1 [Acetaminophen, reference compound]

formation in fecal samples [6]: detected
SMILES: C/C(=C\CCC1(C)CCc2cc(O)cc(C)c2O1)CC/C=C(\C)CCCC(C)C(=O)O (centres unmarked) [δTE-13′-1]

SMILES: CC(C)=CCC/C(C)=C/CC/C(C)=C/CC[C@]1(C)CCc2cc(O)c(C)c(C)c2O1 [γ-TE, γ-tocotrienol]
effect of sesamin on the inhibitory potency on PGE2 ([1]; in the presence of 1 μM sesamin): moderately diminished
IC50 [1]: 10 µM
cell viability (MTT, cell morphology) (A549 cells [2]; 20 μM): did not show significant effects
share of metabolites that are sulfated carboxychromanols (A549 cells [7]; 72-h incubation): more than 85%
share of metabolites that are unconjugated carboxychromanols (A549 cells [7]; first 24-h incubation): 90%
